Columns and labels:
[1] = system: GSH; test: GSH reactivity (glutathione half-life); type: physicochemical; conditions: 4.6 mM glutathione (GSH) in phosphate buffer; 4.6 mM GSH, 50 µM compound, pH 7.4 phosphate buffer, 37 °C; read-out: GSH t1/2 (converted)
Method: Compounds were suspended to 10 mM in 100% DMSO and were added to 4.6 mM GSH to achieve the final compound concentration of 50 µM in pH 7.4 phosphate buffer before incubating at 37 °C. Compound reaction with GSH was monitored by LC-MS on a Waters Acquity UPLC system with PDA and ELSD operating in positive and negative ion electrospray mode, employing an Acquity UPLC BEH C18, […], 2.1 × 50 mm column with 0.1% formic acid and water-acetonitrile (5–95%) for gradient elution over 4 minutes.

[2] = target: T1, EGFR WT (Homo sapiens, UniProt P00533); test: TR-FRET probe displacement assay, EGFR WT; type: binding; conditions: for WT pIC50 / IC50: 30 min incubation, mean of at least 3 replicates; for IC50: read-out: WT pIC50 (converted)
T1 construct: made in house; host or cells: Sf9 insect cells (MultiBac baculovirus)
Method: (§1) The binding mode of gefitinib, typical of an anilinoquinazoline-based kinase inhibitor, is well characterised, with the morpholine side-chain extending into the solvent exposed region where a variety of substituents are tolerated. […] Accordingly, probe compound 6 was prepared, in which the morpholine was replaced by a piperazine and a BODIPY fluorophore was attached via a 4-aminobutanoate spacer (Fig. 3a). A related sapitinib-derived tracer has subsequently been described. Compound 6 was employed in a time-resolved Förster-resonance energy transfer (TR-FRET) assay with EGFR bound to a terbium-containing antibody (Fig. 3b). In line with our previous work exploring the activity of anilinoquinazoline-based acrylamide TCIs[14], the incubation time for the assay was set at 30 mins.
(§2) Compounds (dissolved to 10 mM in DMSO) were dispensed into black low-volume 384 well assay plates (Corning) over a final concentration range of 100000, 30,000, 10,000, 3000, 1000, 300, 100, 30, 10, and 3 nM using an Echo 550 (Labcyte). Positive control compound and DMSO as a negative control were dispensed into the first and last well, respectively. Each well was backfilled with DMSO to a final volume of 200 nl, resulting in final assay DMSO concentrations of 1%. […] Plates were read using a PheraStar FS (BMG Labtech) at Ex337nm […]. The data were analysed using GraphPad Prism/Dotmatics Studies Software. Assays were conducted in technical replicate and repeated as a biological duplicate.

[3] = target: T2, EGFR DM (L858R/T790M) (Homo sapiens, UniProt P00533, L858R/T790M); test: TR-FRET probe displacement assay, EGFR DM; type: binding; conditions: for DM pIC50 / IC50: 30 min incubation, mean of at least 3 replicates; for IC50: read-out: DM pIC50 (converted)
T2 construct: His tag
Method: as §1, §2

[4] = system: pEGFR in WT EGFR overexpressing A431 cells; test: Cellular pEGFR inhibition by HTRF in A431 cells; type: cell-based; conditions: Homo sapiens, A-431, n = 1, read-out: pIC50 (A431) cellular pEGFR inhibition (converted)
Method: (§3) Cells were plated at 20,000 cells per well in 96 well plates and placed at 37°C 5% CO2. Once adhered (after 24 h) cells were treated with compounds dissolved in DMSO at a final concentration of 0.1% DMSO in media. Compounds were diluted in media then added to cells for 2.5 hours in duplicate. 100 ng/ml EGF (ThermoFisher, PHG0311) was is added to all compound treated cells as well as a control for 30 mins. Compound and media were removed from the cells, then 50ul of HTRF lysis buffer was added (lysis buffer was diluted from 4X stock to 1X in DI water, with 1% blocking agent also added). Cells were lysed on a plate shaker (2000 rpm) for 30 minutes at room temperature. pEGFR expression was monitored using the Cisbio Phospho-EGFR (Tyr1068) cellular kit (64EG1PEH). Total EGFR expression was monitored using the Cisbio Total EGFR cellular kit (64NG1PEH) as per manufacturer’s instructions. Fluorescence emission was read at two different wavelengths (665 nm and 620 nm) on a PheraStar. Results were calculated as the ratio of pEGFR/ total EGFR and then the percentage of 0 µM control. Data is n = 1 from 2 replicates.

[5] = system: pEGFR in DM expressing H1975 cells; test: Cellular pEGFR inhibition by HTRF in H1975 cells; type: cell-based; conditions: Homo sapiens, NCI-H1975, n = 1, read-out: pIC50 (H1975) cellular pEGFR inhibition (converted)
Method: as §3

[6] = system: A431 cells; test: Growth inhibition in A431 cells (SRB, 72 h); type: cell-based; conditions: Homo sapiens, A-431, A431 cell viability, n = 1
Method: A431 cells purchased from ECACC, Cat. 85090402, were plated on day 0 in a 96-well plate at a density known to allow for exponential growth over 72 h in DMEM (Sigma-Aldrich, Cat No. D5796) supplemented with 10% FBS (Gibco, Cat No. 10270-106). On day 1, the compounds were diluted to the required concentration in DMEM + 10% FBS media, ensuring that the final DMSO concentration was 0.1% once added to cells. The cells were then incubated for 72 h at 37 °C with 5% CO2. Cells were then fixed by adding 50% (wt/vol) TCA to each well of the plate and left at 4 °C for 1 h. The plates were then washed thoroughly with water, 100 μL of 0.4% SRB solution was added to the wells, and left at room temperature for 30 min. The plates were rinsed with 1% AcOH and then left to air-dry in a drying cabinet for 1 h. Once dry, 100 μL of 10 mM tris pH 10.5 was added to each well and the plates were placed on a plate shaker for 10 min. The absorbance was read at 570 nm using a FluoStar Omega plate reader. Data is n = 1 from 3 replicates, […]

[7] = target: T3, WT EGFR (Homo sapiens, UniProt P00533); test: Intact protein mass spectrometry; type: binding; conditions: 15 µM compound, 4 µM EGFR, 4 hr, ambient temperature
T3 construct: AssayQuant Technologies Inc. (contract measurement)
Method: Compounds were suspended to 10 mM in 100% DMSO and were added to 4 µM EGFR to achieve the final compound concentration of 15 µM in 1% DMSO, in 25 mM TRIS pH8, 150 mM NaCL, 5% glycerol before incubating at ambient temperature for the 4 hr time prior to analysis. […] 1 µL of purified protein (~1 mg/mL) was injected onto a MS Pac DS-10 Desalter cartridge ((Thermo Fisher Scientific), PN: 089170, 2.1 × 10 mm) for desalting and reversed phase separation at 70 °C. The mobile phase was 0.1% (v/v) formic acid in LC-MS grade water (A) and LC-MS grade acetonitrile (B) with separation performed over 7.5 min. […] Proteins were detected in positive ion mode using electrospray ionisation with nebuliser pressure of 45 psig, drying gas flow of 5 L/min, and source gas temperature of 325 °C. Sheath gas temperature of 400 °C and gas flow of 11 L/min, capillary voltage of 3500 V and nozzle voltage of 2000V were also used. Mass spectra were acquired using MassHunter Acquisition software (version B.08.00) over a mass range of 100–3000 m/z, at a rate of 1 spectra/s and 1000 ms/spectrum in standard mass range (3200 m/z) at 2 GHz. The instrument had been calibrated over the selected mass range prior to analysis.

T1 sequence (P00533 25-1210): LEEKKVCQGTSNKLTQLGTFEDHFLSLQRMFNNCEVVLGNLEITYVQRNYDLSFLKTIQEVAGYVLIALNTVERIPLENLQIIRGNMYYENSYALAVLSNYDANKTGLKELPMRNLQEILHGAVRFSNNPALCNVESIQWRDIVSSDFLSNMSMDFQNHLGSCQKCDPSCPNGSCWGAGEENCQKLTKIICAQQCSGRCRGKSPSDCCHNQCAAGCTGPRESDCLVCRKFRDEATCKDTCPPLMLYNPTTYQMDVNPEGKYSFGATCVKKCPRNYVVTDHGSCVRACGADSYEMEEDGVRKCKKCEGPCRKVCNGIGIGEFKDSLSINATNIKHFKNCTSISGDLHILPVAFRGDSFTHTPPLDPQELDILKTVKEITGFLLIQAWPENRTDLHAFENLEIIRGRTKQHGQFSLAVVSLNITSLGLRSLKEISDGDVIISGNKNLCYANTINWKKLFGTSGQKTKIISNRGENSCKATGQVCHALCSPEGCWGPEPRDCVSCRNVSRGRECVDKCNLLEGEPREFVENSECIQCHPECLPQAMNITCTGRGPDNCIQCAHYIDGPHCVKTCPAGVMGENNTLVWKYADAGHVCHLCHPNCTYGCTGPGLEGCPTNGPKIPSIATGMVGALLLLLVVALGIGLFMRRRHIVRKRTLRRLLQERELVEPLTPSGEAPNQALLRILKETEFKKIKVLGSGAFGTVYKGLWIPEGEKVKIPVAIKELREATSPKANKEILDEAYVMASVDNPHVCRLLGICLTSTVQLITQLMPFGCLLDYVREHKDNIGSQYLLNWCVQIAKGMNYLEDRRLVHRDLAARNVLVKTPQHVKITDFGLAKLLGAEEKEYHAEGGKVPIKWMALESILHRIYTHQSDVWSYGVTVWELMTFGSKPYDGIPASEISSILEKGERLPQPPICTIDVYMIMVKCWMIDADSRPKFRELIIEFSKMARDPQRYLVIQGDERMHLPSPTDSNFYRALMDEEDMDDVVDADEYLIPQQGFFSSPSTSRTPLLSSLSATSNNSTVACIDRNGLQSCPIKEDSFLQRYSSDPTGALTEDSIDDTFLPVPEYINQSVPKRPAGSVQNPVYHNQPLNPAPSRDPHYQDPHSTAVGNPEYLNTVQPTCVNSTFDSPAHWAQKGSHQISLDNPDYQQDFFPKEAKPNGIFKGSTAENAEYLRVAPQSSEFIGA
T2 sequence (P00533 25-1210 T790M/L858R): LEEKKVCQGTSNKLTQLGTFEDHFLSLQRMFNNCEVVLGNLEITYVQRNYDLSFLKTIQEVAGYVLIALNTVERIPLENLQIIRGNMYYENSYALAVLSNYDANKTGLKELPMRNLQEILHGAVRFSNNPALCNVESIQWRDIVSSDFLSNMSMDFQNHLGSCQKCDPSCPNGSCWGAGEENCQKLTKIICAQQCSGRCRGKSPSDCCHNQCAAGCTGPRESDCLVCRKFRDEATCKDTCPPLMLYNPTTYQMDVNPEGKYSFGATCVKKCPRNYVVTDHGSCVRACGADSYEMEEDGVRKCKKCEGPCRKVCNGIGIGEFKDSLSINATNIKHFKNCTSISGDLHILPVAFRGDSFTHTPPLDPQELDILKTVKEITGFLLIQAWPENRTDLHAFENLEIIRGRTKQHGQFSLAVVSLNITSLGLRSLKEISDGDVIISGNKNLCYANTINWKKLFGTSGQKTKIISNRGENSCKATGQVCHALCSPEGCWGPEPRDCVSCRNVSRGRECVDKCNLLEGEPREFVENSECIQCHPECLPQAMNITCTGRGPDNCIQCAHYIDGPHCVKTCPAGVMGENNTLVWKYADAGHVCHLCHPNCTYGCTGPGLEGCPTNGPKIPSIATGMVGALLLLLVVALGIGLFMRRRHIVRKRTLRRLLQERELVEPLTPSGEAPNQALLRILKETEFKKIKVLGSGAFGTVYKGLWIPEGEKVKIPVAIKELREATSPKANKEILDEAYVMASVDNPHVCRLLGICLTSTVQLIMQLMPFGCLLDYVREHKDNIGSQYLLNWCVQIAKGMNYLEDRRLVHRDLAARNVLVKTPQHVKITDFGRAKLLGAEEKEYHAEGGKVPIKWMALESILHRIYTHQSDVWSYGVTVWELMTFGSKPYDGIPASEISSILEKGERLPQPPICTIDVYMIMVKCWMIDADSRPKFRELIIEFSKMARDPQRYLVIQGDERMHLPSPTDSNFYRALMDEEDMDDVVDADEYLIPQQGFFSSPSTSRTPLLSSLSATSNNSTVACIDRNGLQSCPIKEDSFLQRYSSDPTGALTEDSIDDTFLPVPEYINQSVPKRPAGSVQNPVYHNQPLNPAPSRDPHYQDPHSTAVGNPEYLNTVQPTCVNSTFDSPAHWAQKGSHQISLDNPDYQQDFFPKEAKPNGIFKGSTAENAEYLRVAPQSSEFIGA
T3 sequence (P00533 25-1210): as the sequence (P00533 25-1210) above

Compound: C=CC(=O)Nc1cc(Nc2nccc(-c3cn(C)c4ccccc34)n2)c(OC)cc1N(C)CCN(C)C [Compound 2, osimertinib, reference compound]
- half-life at 50 µM [1]: 2.5 h

Compound: COc1cc2ncnc(Nc3ccc(F)c(Cl)c3)c2cc1OCCCN1CCN(C(=O)CCCNC(=O)CCc2ccc3n2[B-](F)(F)[N+]2=C(C)C=C(C)C2=C3)CC1 [Compound 6, N-(4-(4-(3-((4-((3-chloro-4-fluorophenyl)amino)-7-methoxyquinazolin-6-yl)oxy)propyl)piperazin-1-yl)-4-oxobutyl)-3-(5,5-difluoro-7,9-dimethyl-5H-5l4,6l4-dipyrrolo[1,2-c:2’,1’-f][1,3,2]diazaborinin-3-yl)propenamide, reference compound]
- Kd ([2]; fluorescent probe): 1600 ± 190 nM
- Kd ([3]; fluorescent probe): 3000 ± 1600 nM

Compound: C=CC(=O)N1CCC(Oc2cc3c(Nc4cccc(Cl)c4F)ncnc3cc2OC)CC1 [Compound 7]
- WT pIC50 [2]: 8.8 ± 0.1
- DM pIC50 [3]: 8.4 ± 0.03

Compound: C=CC(=O)N1CCC(Oc2cc3c(Nc4ccc(F)c(Cl)c4)ncnc3cc2OC)CC1 [Compound 8]
- WT pIC50 [2]: 8.3 ± 0.07
- DM pIC50 [3]: 8.0 ± 0.6

Compound: C=CC(=O)N1CC[C@@H](Oc2cc3c(Nc4ccc(F)c(Cl)c4)ncnc3cc2OC)C1 [Compound 16]
- IC50 [2]: 316 nM
- IC50 [3]: 100 nM
- half-life at 50 µM [1]: 36 h
- IC50 [4]: 79.4 nM
- IC50 [5]: 2510 nM
- GI50 [6]: 316 nM

Compound: C=CC(=O)N1CC[C@H](Oc2cc3c(Nc4ccc(F)c(Cl)c4)ncnc3cc2OC)C1 [Compound 17]
- IC50 [2]: 5.01 nM
- IC50 [3]: 6.31 nM
- half-life at 50 µM [1]: 41 h
- level of protein modification compared to 16 [7]: two-fold increase
- IC50 [4]: < 10 nM
- IC50 [5]: 25.1 nM
- GI50 [6]: 7.94 nM

Compound: COc1cc2ncnc(Nc3ccc(F)c(Cl)c3)c2cc1O[C@@H]1CCN(C(C)=O)C1 [Compound 22]
- IC50 [2]: 39.8 nM
- IC50 [3]: 25.1 nM

Compound: COc1cc2ncnc(Nc3ccc(F)c(Cl)c3)c2cc1O[C@H]1CCN(C(C)=O)C1 [Compound 23]
- IC50 [2]: 126 nM
- IC50 [3]: 31.6 nM
